Reference: PubChem BioAssay (NCI)
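Protocol summary: plate cells (96-well), add compound at 5 concentrations, incubate 48 h, interpolate endpoints linearly. GI50 marks 50% less growth. TGI is the concentration that stops growth completely.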

What was measured:
Assay in all cases: NCI tumour cell line growth inhibition, 48 h
BT-549 breast = system: BT-549 breast
NCI-H226 lung = system: NCI-H226 lung
SK-MEL-28 melanoma = system: SK-MEL-28 melanoma
SW-620 colon = system: SW-620 colon
UACC-62 melanoma = system: UACC-62 melanoma
ACHN renal = system: ACHN renal
HOP-62 NSCLC = system: HOP-62 NSCLC
OVCAR-3 ovarian = system: OVCAR-3 ovarian

| Compound | TGI (BT-549 breast) | TGI (NCI-H226 lung) | TGI (SK-MEL-28 melanoma) | TGI (SW-620 colon) | TGI (UACC-62 melanoma) | TGI (ACHN renal) | TGI (HOP-62 NSCLC) | TGI (OVCAR-3 ovarian) | GI50 (BT-549 breast) | GI50 (NCI-H226 lung) | GI50 (SK-MEL-28 melanoma) | GI50 (SW-620 colon) | GI50 (UACC-62 melanoma) | GI50 (ACHN renal) | GI50 (HOP-62 NSCLC) | GI50 (OVCAR-3 ovarian) |
| --- | --- | --- | --- | --- | --- | --- | --- | --- | --- | --- | --- | --- | --- | --- | --- | --- |
| Cc1ccccc1CN1CC2=C(CCN(Cc3ccccc3)C2=O)N2CCN=C12 | > 100 µM | > 100 µM | > 100 µM | > 100 µM | > 100 µM | > 100 µM | > 100 µM | > 87 µM |  |  |  |  |  |  |  |  |
| C=C1CC[C@@]2(C#N)[C@H]3[C@H](CC[C@@H]2C)[C@@H](C)C[C@@H](CC(C)(C)C#N)[C@H]13 | 18.8 µM | 24.1 µM | 44.2 µM | 22.1 µM | 16.7 µM | 14.7 µM | 24.3 µM | 28.8 µM | 1.23 µM | 2.43 µM | 2.63 µM | 4.65 µM | 2.45 µM | 1.03 µM | 2.33 µM | 2.88 µM |
| CCCCCNC(=O)[C@@H]1CCCN2C(=O)CC[C@H](NC(=O)[C@H](Cc3ccc(OP(=O)(O)O)cc3)NC(C)=O)C(=O)N12 | > 25 µM | > 25 µM | > 25 µM | > 25 µM | > 25 µM | > 25 µM | > 25 µM | > 25 µM | > 25 µM | > 25 µM | > 25 µM | > 25 µM | > 25 µM | > 25 µM | > 25 µM | > 25 µM |
| COc1ccc2nc(-c3ccccc3)cc(Nc3ccc(C(C)=O)cc3)c2c1 | 37.5 µM | 3.46 µM | > 100 µM | 18.5 µM | 5.13 µM | 9.79 µM |  |  | 15.3 µM | 0.94 µM | 29.5 µM | 5.08 µM | 2.31 µM | 2.54 µM |  |  |
| CCN(CC)CCOc1ccc(Nc2ncc3cc(-c4ccc(O)cc4)c(=O)n(C)c3n2)cc1 | 16.5 µM | 22.6 µM | 27.6 µM | 4.01 µM | 41 µM | 17.5 µM | 23.7 µM | 31.2 µM | 3.33 µM | 4.61 µM | 10.6 µM | 2.01 µM | 17.5 µM | 0.0618 µM | 2.78 µM | 15.9 µM |
| c1ccc2[nH]c(SSc3nc4ncncc4[nH]3)nc2c1 | > 100 µM | > 100 µM | > 100 µM | > 100 µM | > 100 µM | > 100 µM | > 100 µM | > 100 µM | 2.89 µM | 9.52 µM | 27.8 µM | 3.24 µM | 0.729 µM | 4.14 µM | 0.427 µM | 0.579 µM |
| O=C(Nc1ccc(-n2cc(-c3ccncc3)c(-c3ccc(Cl)c(O)c3)n2)cc1)Nc1cc(C(F)(F)F)cc(C(F)(F)F)c1 | 3.22 µM | 10.6 µM | 4.34 µM | 4.44 µM | 5.37 µM | 10.3 µM | 3.66 µM | 2.89 µM | 1.49 µM | 2.45 µM | 2.01 µM | 2.24 µM | 2.23 µM | 2.92 µM | 1.8 µM | 1.52 µM |
| COc1cc(Cl)cc(-c2nn(C(=O)NCCN3CCN(C)CC3)cc2-c2ccncc2)c1 | 18.6 µM | 57.3 µM | 40.6 µM | > 100 µM | 20.3 µM | > 100 µM | 44.5 µM | 85.9 µM | 3.37 µM | 4.29 µM | 5.31 µM | 33.1 µM | 4.95 µM | 4.16 µM | 5.87 µM | 23.6 µM |
| O=[N+]([O-])c1ccc(-c2nc(N(CCO)CCO)c3ccccc3n2)o1 | 0.758 µM | 1.05 µM | 2.41 µM | 2.55 µM | 0.477 µM | 0.631 µM | 0.671 µM | 1.43 µM | 0.174 µM | 0.216 µM | 0.877 µM | 0.265 µM | 0.196 µM | 0.159 µM | 0.145 µM | 0.235 µM |
| C=C(Cl)COC(=O)Nc1cccc(Cl)c1 | 87.2 µM | > 100 µM | > 100 µM | > 100 µM | 59.5 µM | > 100 µM | > 100 µM | > 100 µM |  |  |  |  |  |  |  |  |
| CN(NC(=O)CC(=O)NN(C)C(=S)c1ccccc1)C(=S)c1ccccc1 | > 100 µM | > 100 µM | > 100 µM | > 100 µM | > 100 µM | > 100 µM | > 100 µM | > 100 µM | 88.7 µM |  | > 72.8 µM |  |  | 73.9 µM | > 69.2 µM |  |
| Cn1ccc2c(NCCN)c3c(c(NCCN)c21)C(=O)c1ccccc1C3=O | 23.7 µM | 5.8 µM | 36.7 µM | 2.59 µM | 5.86 µM | 9.04 µM | 2.72 µM | 5.37 µM | 7.62 µM | 1.3 µM | 15.6 µM | 0.514 µM | 2.17 µM | 2.5 µM | 0.35 µM | 0.795 µM |
| CC(C)(C)C(=O)Nc1ccccc1I(=O)=O | > 100 µM | > 100 µM | > 100 µM | > 100 µM | > 100 µM | > 100 µM |  | > 100 µM | > 100 µM | > 100 µM | > 100 µM | > 100 µM | > 100 µM | > 100 µM |  | > 100 µM |
| COc1ccc2c(c1)nc(N)c1c3cc(OC)c(OC)cc3cn21 | 15.2 µM | 16.8 µM | 19.9 µM | 19.8 µM | 21.7 µM | 16.3 µM | 16.9 µM |  | 0.827 µM |  |  | < 0.01 µM | < 0.01 µM | < 0.01 µM |  |  |
| O=C(/C=C/C=C/c1ccccc1)CCc1ccccc1 | > 100 µM | > 100 µM |  | > 100 µM | > 100 µM |  | > 100 µM | > 100 µM |  |  |  |  |  |  |  |  |
| CC1(C)OC[C@@H]([C@@]2(CO[Si](C)(C)C(C)(C)C)CC=CC(=O)O2)O1 | 47.8 µM |  | 48.9 µM | 69.8 µM | 44.6 µM | 51.7 µM | 53.1 µM | 39.7 µM | 24.1 µM |  | 21.8 µM | 28.3 µM | 19 µM | 22.4 µM | 31 µM | 15.9 µM |
